Assay results from PubChem BioAssay AID1259407 (Chemical Carcinogenesis Research Information System (CCRIS), 2018).
Calls of active or inactive are those of the source. No rule for the calls is given here.

System: CCRIS mutagenicity, Ames/micronucleus/aberration tests
Assay: CCRIS mutagenicity studies
[1] = Test System: AMES SALMONELLA TYPHIMURIUM, Strain/Indicator: TA100, Metabolic Activation: NONE, Method: PREINCUBATION
[2] = Test System: AMES SALMONELLA TYPHIMURIUM, Strain/Indicator: TA100, Metabolic Activation: RAT, LIVER, S-9, AROCLOR 1254, Method: PREINCUBATION
[3] = Test System: AMES SALMONELLA TYPHIMURIUM, Strain/Indicator: TA98, Metabolic Activation: NONE, Method: PREINCUBATION
[4] = Test System: AMES SALMONELLA TYPHIMURIUM, Strain/Indicator: TA1537, Metabolic Activation: NONE, Method: PREINCUBATION
[5] = Test System: AMES SALMONELLA TYPHIMURIUM, Strain/Indicator: TA98, Metabolic Activation: NONE, Method: STANDARD PLATE
[6] = Test System: AMES SALMONELLA TYPHIMURIUM, Strain/Indicator: TA100, Metabolic Activation: NONE, Method: STANDARD PLATE
[7] = Test System: AMES SALMONELLA TYPHIMURIUM, Strain/Indicator: TA1535, Metabolic Activation: NONE, Method: STANDARD PLATE

Measured: mutagenic call

Cl/C=C(\Cl)SCc1ccccc1
active: [2] active; positive
inactive: [1] inactive; negative

CCCCCCCCCCCCCl
inactive: Test System: AMES SALMONELLA TYPHIMURIUM, Strain/Indicator: TA97, Metabolic Activation: HAMSTER, LIVER, S-9, AROCLOR 1254 (10 OR 30%), Method: PREINCUBATION inactive; negative | Test System: AMES SALMONELLA TYPHIMURIUM, Strain/Indicator: TA97, Metabolic Activation: NONE, Method: PREINCUBATION inactive; negative | Test System: AMES SALMONELLA TYPHIMURIUM, Strain/Indicator: TA97, Metabolic Activation: RAT, LIVER, S-9, AROCLOR 1254 (10 OR 30%), Method: PREINCUBATION inactive; negative | Test System: AMES SALMONELLA TYPHIMURIUM, Strain/Indicator: TA98, Metabolic Activation: HAMSTER, LIVER, S-9, AROCLOR 1254 (10 OR 30%), Method: PREINCUBATION inactive; negative | [3] inactive; negative | Test System: AMES SALMONELLA TYPHIMURIUM, Strain/Indicator: TA98, Metabolic Activation: RAT, LIVER, S-9, AROCLOR 1254 (10 OR 30%), Method: PREINCUBATION inactive; negative | Test System: AMES SALMONELLA TYPHIMURIUM, Strain/Indicator: TA100, Metabolic Activation: HAMSTER, LIVER, S-9, AROCLOR 1254 (10 OR 30%), Method: PREINCUBATION inactive; negative | [1] inactive; negative | Test System: AMES SALMONELLA TYPHIMURIUM, Strain/Indicator: TA100, Metabolic Activation: RAT, LIVER, S-9, AROCLOR 1254 (10 OR 30%), Method: PREINCUBATION inactive; negative | Test System: AMES SALMONELLA TYPHIMURIUM, Strain/Indicator: TA1535, Metabolic Activation: HAMSTER, LIVER, S-9, AROCLOR 1254 (10 OR 30%), Method: PREINCUBATION inactive; negative | Test System: AMES SALMONELLA TYPHIMURIUM, Strain/Indicator: TA1535, Metabolic Activation: NONE, Method: PREINCUBATION inactive; negative | Test System: AMES SALMONELLA TYPHIMURIUM, Strain/Indicator: TA1535, Metabolic Activation: RAT, LIVER, S-9, AROCLOR 1254 (10 OR 30%), Method: PREINCUBATION inactive; negative | Test System: AMES SALMONELLA TYPHIMURIUM, Strain/Indicator: TA1537, Metabolic Activation: HAMSTER, LIVER, S-9, AROCLOR 1254 (30%), Method: PREINCUBATION inactive; negative | [4] inactive; negative | Test System: AMES SALMONELLA TYPHIMURIUM, Strain/Indicator: TA1537, Metabolic Activation: RAT, LIVER, S-9, AROCLOR 1254 (30%), Method: PREINCUBATION inactive; negative

CC(C)c1ccc2oc3nc(N)c(C(=O)O)cc3c(=O)c2c1
inactive: [3] inactive; negative | Test System: AMES SALMONELLA TYPHIMURIUM, Strain/Indicator: TA98, Metabolic Activation: RAT, LIVER, S-9, AROCLOR 1254, Method: PREINCUBATION inactive; negative | [1] inactive; negative | [2] inactive; negative | [4] inactive; negative | Test System: AMES SALMONELLA TYPHIMURIUM, Strain/Indicator: TA1537, Metabolic Activation: RAT, LIVER, S-9, AROCLOR 1254, Method: PREINCUBATION inactive; negative | Test System: E. COLI, Strain/Indicator: WP2 (HCR), Metabolic Activation: NONE, Method: PREINCUBATION inactive; negative | Test System: E. COLI, Strain/Indicator: WP2 (HCR), Metabolic Activation: RAT, LIVER, S-9, AROCLOR 1254, Method: PREINCUBATION inactive; negative

O=C1NC(c2ccc([N+](=O)[O-])s2)Nc2ccccc21 (stereo not given)
active: [5] active; positive | [6] active; positive

COc1cc(/C=C/C(=O)O[C@H]2CC[C@]34C[C@]35CC[C@]3(C)[C@@H]([C@H](C)CCC=C(C)C)CC[C@@]3(C)[C@@H]5CC[C@H]4C2(C)C)ccc1O
inactive: [5] inactive; negative | Test System: AMES SALMONELLA TYPHIMURIUM, Strain/Indicator: TA98, Metabolic Activation: S9, Method: STANDARD PLATE inactive; negative | [6] inactive; negative | Test System: AMES SALMONELLA TYPHIMURIUM, Strain/Indicator: TA100, Metabolic Activation: S9, Method: STANDARD PLATE inactive; negative | [7] inactive; negative | Test System: AMES SALMONELLA TYPHIMURIUM, Strain/Indicator: TA1535, Metabolic Activation: S9, Method: STANDARD PLATE inactive; negative | Test System: AMES SALMONELLA TYPHIMURIUM, Strain/Indicator: TA1537, Metabolic Activation: NONE, Method: STANDARD PLATE inactive; negative | Test System: AMES SALMONELLA TYPHIMURIUM, Strain/Indicator: TA1537, Metabolic Activation: S9, Method: STANDARD PLATE inactive; negative | Test System: E.COLI, Strain/Indicator: WP2 UVRA, Metabolic Activation: NONE, Method: STANDARD PLATE inactive; negative | Test System: E.COLI, Strain/Indicator: WP2 UVRA, Metabolic Activation: S9, Method: STANDARD PLATE inactive; negative

O=C1OCC(Br)=C1Br
active: [6] active; positive

O=C1NCCN1/N=C/c1ccc([N+](=O)[O-])o1
inactive: Test System: AMES SALMONELLA TYPHIMURIUM, Strain/Indicator: TA98, Metabolic Activation: S-9 inactive; negative
active: Test System: AMES SALMONELLA TYPHIMURIUM, Strain/Indicator: TA98, Metabolic Activation: NONE active; positive | Test System: AMES SALMONELLA TYPHIMURIUM, Strain/Indicator: TA100, Metabolic Activation: NONE active; positive | Test System: AMES SALMONELLA TYPHIMURIUM, Strain/Indicator: TA100, Metabolic Activation: S-9 active; positive

c1ccc(-c2ccnc3c2ccc2c(-c4ccccc4)ccnc23)cc1
equivocal: Test System: Mouse lymphoma, Strain/Indicator: L5178Y (tk+/tk-), Metabolic Activation: Rat, Liver, S-9, Aroclor 1254, Method: Suspension/plate
active: Test System: Mouse lymphoma, Strain/Indicator: L5178Y (tk+/tk-), Metabolic Activation: None, Method: Suspension/plate active; positive

CC(C)N(N)C(C)C
active: Test System: AMES SALMONELLA TYPHIMURIUM, Strain/Indicator: TA1535, Metabolic Activation: RAT, LIVER, S-9, AROCLOR 1254, Method: STANDARD PLATE active; positive
inactive: [6] inactive; negative | Test System: AMES SALMONELLA TYPHIMURIUM, Strain/Indicator: TA100, Metabolic Activation: RAT, LIVER, S-9, AROCLOR 1254, Method: STANDARD PLATE inactive; negative | Test System: AMES SALMONELLA TYPHIMURIUM, Strain/Indicator: TA102, Metabolic Activation: NONE, Method: STANDARD PLATE inactive; negative | Test System: AMES SALMONELLA TYPHIMURIUM, Strain/Indicator: TA102, Metabolic Activation: RAT, LIVER, S-9, AROCLOR 1254, Method: STANDARD PLATE inactive; negative | [7] inactive; negative
